Drawing on ChEMBL document CHEMBL1130531, “A new series of selective dopamine D4 ligands: 3-([4-arylpiperazin-1-yl]alkylamino)-2H-1,4-benzoxazines” (Bioorg Med Chem Lett, 1997), this text covers Ki for two compounds.

Assay type in all cases: cell-based
In one test the target is T1, D(4) dopamine receptor (Homo sapiens, UniProt P21917).
T1 sequence (P21917 whole entry): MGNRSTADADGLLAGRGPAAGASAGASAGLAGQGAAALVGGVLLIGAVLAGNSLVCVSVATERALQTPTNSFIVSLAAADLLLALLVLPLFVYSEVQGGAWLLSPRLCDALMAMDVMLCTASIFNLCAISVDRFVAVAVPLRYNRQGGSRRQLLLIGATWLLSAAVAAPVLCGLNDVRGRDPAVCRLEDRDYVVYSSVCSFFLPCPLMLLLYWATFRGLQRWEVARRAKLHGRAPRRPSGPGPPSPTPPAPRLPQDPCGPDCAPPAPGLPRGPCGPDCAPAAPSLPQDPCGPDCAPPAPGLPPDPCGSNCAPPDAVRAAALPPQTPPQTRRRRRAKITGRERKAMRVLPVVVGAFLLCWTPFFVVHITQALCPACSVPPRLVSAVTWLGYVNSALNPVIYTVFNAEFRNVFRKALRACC
As to the kind of experiment: Binding affinity at cloned human D4 dopamine receptor in CHO cells using [3H]-YM 09151 as radioligand.

A further test deals with D(2) dopamine receptor (Homo sapiens, UniProt P14416). In words: Binding affinity at cloned human D2 dopamine receptor in CHO cells using [3H]-YM 09151 as radioligand.
Chain of D(2) dopamine receptor (P14416 whole entry): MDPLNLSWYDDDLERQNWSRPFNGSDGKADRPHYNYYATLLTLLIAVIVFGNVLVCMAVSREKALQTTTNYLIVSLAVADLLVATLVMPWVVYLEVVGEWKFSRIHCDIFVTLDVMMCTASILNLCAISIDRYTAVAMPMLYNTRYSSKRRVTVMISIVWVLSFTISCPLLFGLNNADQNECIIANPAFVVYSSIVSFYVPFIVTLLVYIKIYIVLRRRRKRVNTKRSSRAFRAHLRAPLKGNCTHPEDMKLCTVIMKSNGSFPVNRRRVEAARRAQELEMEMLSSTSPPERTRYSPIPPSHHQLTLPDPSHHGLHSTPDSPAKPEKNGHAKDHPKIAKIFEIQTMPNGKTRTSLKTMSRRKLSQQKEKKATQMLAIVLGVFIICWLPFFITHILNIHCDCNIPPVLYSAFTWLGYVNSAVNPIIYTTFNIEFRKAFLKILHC
Another test addresses D(3) dopamine receptor (Homo sapiens, UniProt P35462). As to the kind of experiment: Binding affinity at cloned human D3 dopamine receptor in CHO cells using [3H]-YM 09151 as radioligand.

Molecules are shown by their SMILES. pKi: −log10 of the molar value.

Chain of D(3) dopamine receptor (P35462 whole entry): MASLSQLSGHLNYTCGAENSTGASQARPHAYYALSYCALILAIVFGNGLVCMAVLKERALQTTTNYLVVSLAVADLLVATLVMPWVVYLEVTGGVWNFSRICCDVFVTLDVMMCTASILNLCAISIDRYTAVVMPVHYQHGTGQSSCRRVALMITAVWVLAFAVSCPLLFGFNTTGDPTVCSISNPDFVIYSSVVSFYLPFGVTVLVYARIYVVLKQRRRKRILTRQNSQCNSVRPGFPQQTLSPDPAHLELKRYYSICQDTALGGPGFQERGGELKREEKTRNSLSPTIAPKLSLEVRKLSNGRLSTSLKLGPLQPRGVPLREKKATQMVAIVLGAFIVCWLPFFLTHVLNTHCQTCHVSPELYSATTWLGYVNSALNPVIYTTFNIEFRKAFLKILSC

One may read the pKi as −log10 of the Ki, conventionally taken in molar units. In turn, `c1ccc2c(c1)N=C(NCCCCCN1CCN(c3ccc4ccccc4n3)CC1)CO2` had a pKi at D(4) dopamine receptor of 6.90.

With `COc1ccccc1N1CCN(CCCNC2=Nc3ccccc3OC2)CC1`, the pKi at D(2) dopamine receptor was 6.55; on D(3) dopamine receptor it was less than 6.00; at D(4) dopamine receptor it was 8.52.
